Source: ChEMBL document CHEMBL3885861, “Open TG-GATES”

Organism: Rattus norvegicus
Assay: Open TG-GATES - Regimen: Daily Repeat
Format: toxicity, organism-based, Sprague-Dawley
Set-up: regimen Daily Repeat, gender Male, age 6 weeks
Settings: in vivo, po, route gavage; for APTT / Bas / Eos / Fbg / Hb / Ht / Lym / MCH / MCHC / MCV / Mono / Neu / PT / Plat / RBC / Ret / WBC: tissue Blood; for KIDNEY_L / KIDNEY_R / KIDNEY_TOTAL: tissue Kidney; for LIVER: tissue Liver; for A/G / ALP / ALT / AST / BUN / CRE / Ca / Cl / DBIL / GLC / IP / K / LDH / Na / PL / RALB / TBIL / TC / TG / TP / gamma-GTP: tissue Plasma
[1] = 300 mg/kg, 72 h, dose level Middle, time 3 day
[2] = 300 mg/kg, […], dose level Middle, time 7 day
[3] = 300 mg/kg, […], dose level Middle, time 14 day
[4] = 300 mg/kg, […], dose level Middle, time 28 day
[5] = 1000 mg/kg, 72 h, dose level High, time 3 day
[6] = 1000 mg/kg, […], dose level High, time 7 day
[7] = 1000 mg/kg, […], dose level High, time 14 day
[8] = 1000 mg/kg, […], dose level High, time 28 day

COC1=CC(=O)C[C@@H](C)[C@]12Oc1c(Cl)c(OC)cc(OC)c1C2=O [GRISEOFULVIN]
TERMINAL_BW [1]: 228.3 g
APTT [1]: 19.9 s
Bas [1]: 0%
Eos [1]: 1%
Fbg [1]: 220 mg/dL
Hb [1]: 13.6 g/dL
Ht [1]: 40.4%
Lym [1]: 73.2%
MCH [1]: 20.8 pg
MCHC [1]: 33.5%
MCV [1]: 62.1 fL
Mono [1]: 3%
Neu [1]: 22.2%
PT [1]: 12.5 s
Plat [1]: 118.4 x10_4/uL
RBC [1]: 651.8 x10_4/ul
Ret [1]: 6.7%
WBC [1]: 99.2 x10_2/uL
KIDNEY_L [1]: 0.9 g
KIDNEY_R [1]: 1 g
KIDNEY_TOTAL [1]: 1.9 g
LIVER [1]: 11.3 g
A/G [1]: 1.6
ALP [1]: 836.2 IU/L
ALT [1]: 44.4 IU/L
AST [1]: 68.2 IU/L
BUN [1]: 13.8 mg/dL
CRE [1]: 0.4 mg/dL
Ca [1]: 10.8 mg/dL
Cl [1]: 104.4 meq/L
DBIL [1]: 0.084 mg/dL
GLC [1]: 218.2 mg/dL
IP [1]: 7.6 mg/dL
K [1]: 3.8 meq/L
LDH [1]: 160.4 IU/L
Na [1]: 141.2 meq/L
PL [1]: 141.6 mg/dL
RALB [1]: 3.4 g/dL
TBIL [1]: 0.1 mg/dL
TC [1]: 80.4 mg/dL
TG [1]: 69 mg/dL
TP [1]: 5.6 g/dL
gamma-GTP [1]: 1.2 IU/L
TERMINAL_BW [2]: 261.2 g
TERMINAL_BW [3]: 309.7 g
TERMINAL_BW [4]: 406.6 g
APTT [2]: 19 s
Bas [2]: 0%
Eos [2]: 0.6%
Fbg [2]: 224 mg/dL
Hb [2]: 13.7 g/dL
Ht [2]: 40.7%
Lym [2]: 76.6%
MCH [2]: 21.2 pg
MCHC [2]: 33.7%
MCV [2]: 62.9 fL
Mono [2]: 3%
Neu [2]: 18.6%
PT [2]: 12.3 s
Plat [2]: 140.6 x10_4/uL
RBC [2]: 646.8 x10_4/ul
Ret [2]: 5.7%
WBC [2]: 118 x10_2/uL
APTT [3]: 19.1 s
Bas [3]: 0%
Eos [3]: 1%
Fbg [3]: 228.6 mg/dL
Hb [3]: 14.2 g/dL
Ht [3]: 42.2%
Lym [3]: 82%
MCH [3]: 20.9 pg
MCHC [3]: 33.7%
MCV [3]: 61.9 fL
Mono [3]: 2.8%
Neu [3]: 13.6%
PT [3]: 12.2 s
Plat [3]: 115.6 x10_4/uL
RBC [3]: 682 x10_4/ul
Ret [3]: 2.8%
WBC [3]: 104.2 x10_2/uL
APTT [4]: 23.1 s
Bas [4]: 0%
Eos [4]: 1%
Fbg [4]: 215.8 mg/dL
Hb [4]: 15.2 g/dL
Ht [4]: 44.7%
Lym [4]: 81%
MCH [4]: 19.9 pg
MCHC [4]: 34%
MCV [4]: 58.8 fL
Mono [4]: 3.2%
Neu [4]: 14.4%
PT [4]: 12.6 s
Plat [4]: 108.5 x10_4/uL
RBC [4]: 761 x10_4/ul
Ret [4]: 2.7%
WBC [4]: 136.8 x10_2/uL
KIDNEY_L [2]: 1.1 g
KIDNEY_R [2]: 1.1 g
KIDNEY_TOTAL [2]: 2.2 g
KIDNEY_L [3]: 1.3 g
KIDNEY_R [3]: 1.3 g
KIDNEY_TOTAL [3]: 2.6 g
KIDNEY_L [4]: 1.4 g
KIDNEY_R [4]: 1.3 g
KIDNEY_TOTAL [4]: 2.7 g
LIVER [2]: 12.8 g
LIVER [3]: 14.8 g
LIVER [4]: 17.3 g
A/G [2]: 1.4
ALP [2]: 848 IU/L
ALT [2]: 35.6 IU/L
AST [2]: 58.4 IU/L
BUN [2]: 13.4 mg/dL
CRE [2]: 0.4 mg/dL
Ca [2]: 10.7 mg/dL
Cl [2]: 104 meq/L
DBIL [2]: 0.08 mg/dL
GLC [2]: 207.6 mg/dL
IP [2]: 7.5 mg/dL
K [2]: 3.7 meq/L
LDH [2]: 136.6 IU/L
Na [2]: 142.6 meq/L
PL [2]: 122.8 mg/dL
RALB [2]: 3.4 g/dL
TBIL [2]: 0.1 mg/dL
TC [2]: 70.4 mg/dL
TG [2]: 60 mg/dL
TP [2]: 5.8 g/dL
gamma-GTP [2]: 0.8 IU/L
A/G [3]: 1.5
ALP [3]: 784.6 IU/L
ALT [3]: 32 IU/L
AST [3]: 51.4 IU/L
BUN [3]: 14.8 mg/dL
CRE [3]: 0.6 mg/dL
Ca [3]: 10.6 mg/dL
Cl [3]: 102.8 meq/L
DBIL [3]: 0.078 mg/dL
GLC [3]: 221.6 mg/dL
IP [3]: 7.5 mg/dL
K [3]: 4.3 meq/L
LDH [3]: 112.2 IU/L
Na [3]: 140.2 meq/L
PL [3]: 142.6 mg/dL
RALB [3]: 3.5 g/dL
TBIL [3]: 0.1 mg/dL
TC [3]: 82.2 mg/dL
TG [3]: 59.6 mg/dL
TP [3]: 5.9 g/dL
gamma-GTP [3]: 1 IU/L
A/G [4]: 1.3
ALP [4]: 565.4 IU/L
ALT [4]: 34.8 IU/L
AST [4]: 55.2 IU/L
BUN [4]: 15.6 mg/dL
CRE [4]: 0.5 mg/dL
Ca [4]: 10.6 mg/dL
Cl [4]: 103 meq/L
DBIL [4]: 0.07 mg/dL
GLC [4]: 237.6 mg/dL
IP [4]: 7.3 mg/dL
K [4]: 3.7 meq/L
LDH [4]: 159.8 IU/L
Na [4]: 140.6 meq/L
PL [4]: 125.8 mg/dL
RALB [4]: 3.4 g/dL
TBIL [4]: 0.1 mg/dL
TC [4]: 70.4 mg/dL
TG [4]: 83 mg/dL
TP [4]: 6 g/dL
gamma-GTP [4]: 1 IU/L
TERMINAL_BW [5]: 225 g
APTT [5]: 21.1 s
Bas [5]: 0%
Eos [5]: 1%
Fbg [5]: 220.8 mg/dL
Hb [5]: 13.5 g/dL
Ht [5]: 39.9%
Lym [5]: 79.2%
MCH [5]: 21.2 pg
MCHC [5]: 33.8%
MCV [5]: 62.6 fL
Mono [5]: 2.4%
Neu [5]: 17%
PT [5]: 12.5 s
Plat [5]: 122 x10_4/uL
RBC [5]: 637.2 x10_4/ul
Ret [5]: 6.9%
WBC [5]: 108.3 x10_2/uL
KIDNEY_L [5]: 1 g
KIDNEY_R [5]: 1 g
KIDNEY_TOTAL [5]: 2 g
LIVER [5]: 11.5 g
A/G [5]: 1.6
ALP [5]: 1064.4 IU/L
ALT [5]: 40.6 IU/L
AST [5]: 63.8 IU/L
BUN [5]: 13.8 mg/dL
CRE [5]: 0.4 mg/dL
Ca [5]: 10.8 mg/dL
Cl [5]: 103.6 meq/L
DBIL [5]: 0.074 mg/dL
GLC [5]: 213.4 mg/dL
IP [5]: 7.8 mg/dL
K [5]: 3.8 meq/L
LDH [5]: 184.2 IU/L
Na [5]: 140.2 meq/L
PL [5]: 125.8 mg/dL
RALB [5]: 3.4 g/dL
TBIL [5]: 0.1 mg/dL
TC [5]: 72.6 mg/dL
TG [5]: 45 mg/dL
TP [5]: 5.6 g/dL
gamma-GTP [5]: 1.4 IU/L
TERMINAL_BW [6]: 266.7 g
TERMINAL_BW [7]: 318.3 g
TERMINAL_BW [8]: 423.7 g
APTT [6]: 21 s
Bas [6]: 0%
Eos [6]: 0.8%
Fbg [6]: 231.6 mg/dL
Hb [6]: 13.3 g/dL
Ht [6]: 38.9%
Lym [6]: 79.2%
MCH [6]: 21.5 pg
MCHC [6]: 34.2%
MCV [6]: 62.9 fL
Mono [6]: 3%
Neu [6]: 16.2%
PT [6]: 12.4 s
Plat [6]: 145.2 x10_4/uL
RBC [6]: 618 x10_4/ul
Ret [6]: 6.6%
WBC [6]: 110.8 x10_2/uL
APTT [7]: 20.2 s
Bas [7]: 0%
Eos [7]: 1%
Fbg [7]: 229.6 mg/dL
Hb [7]: 14.2 g/dL
Ht [7]: 42.1%
Lym [7]: 79.8%
MCH [7]: 21 pg
MCHC [7]: 33.8%
MCV [7]: 62 fL
Mono [7]: 3%
Neu [7]: 15.2%
PT [7]: 12.6 s
Plat [7]: 114.7 x10_4/uL
RBC [7]: 678.4 x10_4/ul
Ret [7]: 2.8%
WBC [7]: 112.6 x10_2/uL
APTT [8]: 24.8 s
Bas [8]: 0%
Eos [8]: 1%
Fbg [8]: 230.8 mg/dL
Hb [8]: 14.6 g/dL
Ht [8]: 43.2%
Lym [8]: 84.4%
MCH [8]: 20.4 pg
MCHC [8]: 33.9%
MCV [8]: 60.1 fL
Mono [8]: 2.4%
Neu [8]: 11.4%
PT [8]: 13 s
Plat [8]: 113.5 x10_4/uL
RBC [8]: 718.4 x10_4/ul
Ret [8]: 3.3%
WBC [8]: 158.4 x10_2/uL
KIDNEY_L [6]: 1.1 g
KIDNEY_R [6]: 1.1 g
KIDNEY_TOTAL [6]: 2.3 g
KIDNEY_L [7]: 1.3 g
KIDNEY_R [7]: 1.3 g
KIDNEY_TOTAL [7]: 2.6 g
KIDNEY_L [8]: 1.6 g
KIDNEY_R [8]: 1.5 g
KIDNEY_TOTAL [8]: 3.1 g
LIVER [6]: 13.5 g
LIVER [7]: 14.6 g
LIVER [8]: 19.4 g
A/G [6]: 1.3
ALP [6]: 845.8 IU/L
ALT [6]: 31.6 IU/L
AST [6]: 56.8 IU/L
BUN [6]: 15.2 mg/dL
CRE [6]: 0.4 mg/dL
Ca [6]: 10.8 mg/dL
Cl [6]: 103.8 meq/L
DBIL [6]: 0.064 mg/dL
GLC [6]: 207 mg/dL
IP [6]: 7.3 mg/dL
K [6]: 3.8 meq/L
LDH [6]: 150.2 IU/L
Na [6]: 142 meq/L
PL [6]: 126.8 mg/dL
RALB [6]: 3.4 g/dL
TBIL [6]: 0.1 mg/dL
TC [6]: 76.4 mg/dL
TG [6]: 45.4 mg/dL
TP [6]: 5.9 g/dL
gamma-GTP [6]: 1.2 IU/L
A/G [7]: 1.4
ALP [7]: 803.4 IU/L
ALT [7]: 32 IU/L
AST [7]: 56 IU/L
BUN [7]: 14.6 mg/dL
CRE [7]: 0.5 mg/dL
Ca [7]: 10.8 mg/dL
Cl [7]: 103 meq/L
DBIL [7]: 0.076 mg/dL
GLC [7]: 205.2 mg/dL
IP [7]: 7.4 mg/dL
K [7]: 4.2 meq/L
LDH [7]: 135.6 IU/L
Na [7]: 140.6 meq/L
PL [7]: 138.6 mg/dL
RALB [7]: 3.4 g/dL
TBIL [7]: 0.1 mg/dL
TC [7]: 81.4 mg/dL
TG [7]: 55.4 mg/dL
TP [7]: 5.9 g/dL
gamma-GTP [7]: 1 IU/L
A/G [8]: 1.3
ALP [8]: 500.8 IU/L
ALT [8]: 39.2 IU/L
AST [8]: 55 IU/L
BUN [8]: 14.8 mg/dL
CRE [8]: 0.5 mg/dL
Ca [8]: 10.5 mg/dL
Cl [8]: 103 meq/L
DBIL [8]: 0.062 mg/dL
GLC [8]: 234.6 mg/dL
IP [8]: 7.3 mg/dL
K [8]: 3.7 meq/L
LDH [8]: 159 IU/L
Na [8]: 140.6 meq/L
PL [8]: 138 mg/dL
RALB [8]: 3.4 g/dL
TBIL [8]: 0.1 mg/dL
TC [8]: 88.6 mg/dL
TG [8]: 38 mg/dL
TP [8]: 6.2 g/dL
gamma-GTP [8]: 0.8 IU/L
